How the values were obtained:
[1] = Perfume stabilization effect (sequestering agent combination); parameters: key to Sunlight exposure (80 MJ) Smell evaluation: A: No change; B: No almost change; C: Yes change; settings: sequestering agent 0.03 alone, photostabilizer 0, amounts wt %
Protocol: Next, for combinations with sequestering agent, photostabilization effect for each perfume was studied by the following evaluation formulation.
Each test sample was prepared. Smell change of samples exposed to sunlight (80 MJ) was observed (judgement by perfumier).

[2] = Pigment stabilization effect (sequestering agent combination); parameters: key to Sunlight exposure (80 MJ) Appearance: A: No change; B: No almost change; C: Yes change; key to Sunlight exposure (80 MJ) ΔE: color difference ΔE in Lab space vs. color before sunlight exposure; settings: photostabilizer 0, amounts wt %
Protocol: First of all, the photostabilization effect and appearance changes of a composition for each pigment were studied by the following evaluation formulation.
Each test sample was prepared. Observation of appearance changes (visual evaluation) and measurement of color difference (ΔE) were carried out for samples exposed to sunlight (around 80 MJ).
Color difference was measured by Lab coordinate system with spectrophotometer. Color difference was calculated based on the color before sunlight exposure. Namely, from the measured value (L1,a1,b1) before sunlight exposure, color difference (ΔE) was calculated by following formula.

[3] = Drug stabilization effect (sequestering agent combination); parameters: key to Sunlight exposure (80 MJ) Appearance: A: No change; B: No almost change; C: Yes change; settings: sequestering agent 0.03 alone, photostabilizer 0, amounts wt %
Protocol: Next, when combined with a sequestering agent, the photostabilization effect and appearance change of a composition for each drug was studied by the following evaluation formulation.
Each test sample was prepared. Appearance change of the samples exposed to sunlight (around 80 MJ) was observed (visual evaluation). Also, residual yield of a drug was measured by liquid chromatography.

[4] = colorant Blue No. 1 0.0001, sequestering agent 0.03 alone
[5] = colorant Green No. 3 0.0001, sequestering agent 0.03 alone
[6] = colorant Red No. 106 0.0001, sequestering agent 0.02 alone
[7] = colorant Red No. 213 0.0001, sequestering agent 0.05 alone
[8] = colorant Red No. 227 0.0001, sequestering agent 0.02 alone
[9] = colorant Red No. 401 0.001, sequestering agent 0.1 alone
[10] = colorant Yellow No. 5 0.001, sequestering agent 0.02 alone
[11] = colorant Yellow No. 203 0.001, sequestering agent 0.02 alone
[12] = colorants Red No. 227 0.0001 + Yellow No. 203 0.0001, sequestering agent 0.02 alone
[13] = colorants Red No. 401 0.0001 + Green No. 3 0.00001, sequestering agent 0.03 alone
[14] = colorants Yellow No. 203 0.0001 + Yellow No. 5 0.0001, sequestering agent 0.01 alone
[15] = drug 2-o-α-α-glucopyranosyl-L-ascorbic acid 2.0
[16] = drug Dibutylhydroxytoluene 0.01
[17] = drug Dipotassium glycyrrhizinate 0.05

With Sodium metaphosphate the “Sunlight exposure (80 MJ) Smell evaluation” value ([1]; natural perfume Jasmine oil 0.03) was “C”, the “Sunlight exposure (80 MJ) Smell evaluation” value ([1]; natural perfume Musk oil 0.03) was “C” and the “Sunlight exposure (80 MJ) Smell evaluation” value ([1]; natural perfume Orange oil 0.03) was “C”. The “Sunlight exposure (80 MJ) Smell evaluation” value ([1]; perfume Fruity 0.03) was “C”, the “Sunlight exposure (80 MJ) Smell evaluation” value ([1]; perfume Muguet 0.03) was “C” and the “Sunlight exposure (80 MJ) Smell evaluation” value ([1]; synthetic perfume Lilial 0.03) was “C”. For the same substance, the “Sunlight exposure (80 MJ) Smell evaluation” value ([1]; synthetic perfume Oranthiol 0.03) was “C”, the “Sunlight exposure (80 MJ) Appearance” value [2, 4] was “C” and the “Sunlight exposure (80 MJ) ΔE” value [2, 4] was 8.02. For the same substance, the “Sunlight exposure (80 MJ) Appearance” value [2, 5] was “C”, the “Sunlight exposure (80 MJ) ΔE” value [2, 5] was 2.02 and the “Sunlight exposure (80 MJ) Appearance” value [2, 6] was “C”. The “Sunlight exposure (80 MJ) ΔE” value [2, 6] was 2.88, the “Sunlight exposure (80 MJ) Appearance” value [2, 7] was “C” and the “Sunlight exposure (80 MJ) ΔE” value [2, 7] was 3.71. For the same substance, the “Sunlight exposure (80 MJ) Appearance” value [2, 8] was “C”, the “Sunlight exposure (80 MJ) ΔE” value [2, 8] was 1.37 and the “Sunlight exposure (80 MJ) Appearance” value [2, 9] was “C”. The “Sunlight exposure (80 MJ) ΔE” value [2, 9] was 7.07, the “Sunlight exposure (80 MJ) Appearance” value [2, 10] was “C” and the “Sunlight exposure (80 MJ) ΔE” value [2, 10] was 1.77. For the same substance, the “Sunlight exposure (80 MJ) Appearance” value [2, 11] was “C”, the “Sunlight exposure (80 MJ) ΔE” value [2, 11] was 2.74 and the “Sunlight exposure (80 MJ) Appearance” value [2, 12] was “C”. For the same substance, the “Sunlight exposure (80 MJ) ΔE” value [2, 12] was 3.01, the “Sunlight exposure (80 MJ) Appearance” value [2, 13] was “C” and the “Sunlight exposure (80 MJ) ΔE” value [2, 13] was 4.23. For the same substance, the “Sunlight exposure (80 MJ) Appearance” value [2, 14] was “C”, the “Sunlight exposure (80 MJ) ΔE” value [2, 14] was 1.44 and the “Sunlight exposure (80 MJ) Appearance” value [3, 15] was “C”. The “Sunlight exposure (80 MJ) Residual yield [%]” value [3, 15] was 85.2%, the “Sunlight exposure (80 MJ) Appearance” value [3, 16] was “C” and the “Sunlight exposure (80 MJ) Residual yield [%]” value [3, 16] was 54.7%. The “Sunlight exposure (80 MJ) Appearance” value [3, 17] was “B” and the “Sunlight exposure (80 MJ) Residual yield [%]” value [3, 17] was 85.8%.

From patent publication US6395896B2, “Pyridazine derivatives, manufacturing method and related composition” (Shiseido Co., Ltd., priority 1999, dated 2002)
